Reference: paper PMC6882899 (Scientific Reports, 2019)

Molecular target: zebrafish WT α1BB-AR (Danio rerio, UniProt Q5U3D9)
Assay: cell-based

Sequence of zebrafish WT α1BB-AR (Q5U3D9 1-481): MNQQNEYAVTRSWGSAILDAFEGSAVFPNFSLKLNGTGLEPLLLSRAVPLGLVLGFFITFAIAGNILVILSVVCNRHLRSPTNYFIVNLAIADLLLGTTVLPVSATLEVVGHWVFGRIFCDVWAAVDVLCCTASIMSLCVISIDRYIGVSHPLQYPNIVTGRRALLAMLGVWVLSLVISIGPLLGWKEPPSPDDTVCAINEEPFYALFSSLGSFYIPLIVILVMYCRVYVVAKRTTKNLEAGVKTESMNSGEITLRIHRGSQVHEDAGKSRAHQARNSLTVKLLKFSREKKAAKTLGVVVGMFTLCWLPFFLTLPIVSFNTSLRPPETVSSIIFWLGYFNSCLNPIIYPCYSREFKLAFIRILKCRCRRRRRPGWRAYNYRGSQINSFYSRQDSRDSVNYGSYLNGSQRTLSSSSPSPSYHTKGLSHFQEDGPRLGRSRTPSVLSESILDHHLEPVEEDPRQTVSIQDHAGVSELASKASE

Structure (SMILES): NC[C@H](O)c1ccc(O)c(O)c1 [NE, norepinephrine]
- EC50: 407 ± 45 nM
